For one series, the target named is BTK kinase (Homo sapiens (Human), UniProt Q06187). Nature of the series: In vitro assay for the inhibition of BTK kinase activity (Mobility-Shift Assay). Type of series: biochemical. Summed up: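 Fluorescently labelled peptide substrate converted by the kinase; substrate and phosphorylated product separated by charge on a microfluidic chip (mobility shift) and quantified separately. Results expressed as conversion rate; control wells received 100% DMSO.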

The subject of the next series is OCI-LY10 cells. In words: Cell proliferation inhibition in vitro, OCI-ly10 cells by CCK-8 method. The note with it: Homo sapiens, 72 hours, read-out: Inhibitions of cell activities IC50 (nM) OCI-LY10. Type of series: cell-based. The method, then:
(§1) Test Example 2: Determination of the Inhibition of Cell Proliferation Inhibitory Activity in
(§2) vitro of compounds using different cell lines
(§3) 2: Preparation of the Compounds:
(§4) The compounds to be tested were diluted with DMSO to prepare a mother liquor at a final concentration of 10 mM for later use.
(§5) 3.1. Test of TMD8 and OCI-ly10 Cells by CCK-8 Method
(§6) Logarithmic growth phase cells were collected, counted and resuspended in complete medium. The cell concentration was adjusted to a suitable concentration (determined according to the cell density optimization test results), and seeded to 96-well plate and 100 μl of the cell suspension was added to each well. The cells were incubated in an incubator at 37° C., 100% relative humidity and 5% C02 for 24 hours.
(§7) The compounds to be tested were diluted with the medium to the set corresponding action concentration, and the cells were added at 25 µl/well. The cells were incubated in an incubator at 37° C., 100% relative humidity and 5% C02 for 72 hours.
(§8) The medium was aspirated and discarded, and a complete medium containing 10% of the test reagent was added and the obtained system was incubated in a 37° C. incubator for 1 hour-4 hours.
(§9) As: OA of the sample (cell+test reagent+test compound)
(§10) Ac: OA of the negative control (cell+test reagent+DMSO)
(§11) Ab: OA of the positive control (medium+test reagent+DMSO)
(§12) IC50 curve fitting was performed using the software Graphpad Prism 5 or XLfit and IC50 values were calculated.

A short description of series [1]: Pharmacokinetic test in SD rats (oral 10 mg/kg, intravenous 1 mg/kg). Type of series: in vivo. The note with it: SD rat; for F (po) %: oral 10 mg/kg vs intravenous 1 mg/kg; for clearance / half-life / AUC / Cmax / Tmax: male, plasma; for clearance / half-life: intravenous 1 mg/kg; for clearance: read-out: Cl (iv) (converted); for half-life: read-out: T½ (iv) h (converted); for AUC / Cmax / Tmax: oral 10 mg/kg. On the procedure: SD rat, male (purchased from Shanghai Sippr-Bk Laboratory Animal Co., Ltd.), each tested compound was administered at a single dose to SD rats by oral administration (10 mg/kg, 3 rats in each group) and intravenous administration (1 mg/kg, 3 rats in each group) for the pharmacokinetic study. The tested compounds were dissolved using DMSO/[…] sodium chloride injection=5/95 (V/V), and vortexed for 1 minute, and after 1 minute of sonication, the compounds were formulated into solutions for administrations. Animals were fasted for 16-17 hours prior to oral administration and feeding was restored 4 hours after administration. After oral and intravenous administration, pharmacokinetic samples were collected from SD rats by jugular vein or cardiac puncture at the following time points: before administration, 5 minute, 15 minute, 30 minute, 1 hour, 2 hours, 4 hours, 6 hours, 8 hours and 24 hours after administration. 3 whole blood samples were collected at each time point, and the collected amount was about 0.2 mL, and the collected samples were anticoagulated by heparin sodium. After collection, the blood samples were immediately placed on ice and centrifuged to separate plasma within 30 minutes (centrifugation conditions: 8000 rpm, 6 minute, 2-8° C.). The collected plasma was stored at −70° C. prior to analysis. 50 μL of plasma sample was brought into a 1.5 mL centrifuge tube, 250 μL of internal standard solution (blank with no internal standard but the same volume of methanol added) was added, blended with vortex, centrifuged at 15000 rpm for 5 minutes. 200 μL of supernatant was taken and added to a 96-well sample plate and the samples were analyzed by LC-MS/MS.

Another series concerns DOHH2 cells. Nature of the series: Cell proliferation inhibition in vitro, DOHH2 cells by CTG assay. Type of series: cell-based. The conditions noted are these: Homo sapiens, DOHH-2, 72 hours, read-out: Inhibitions of cell activities IC50 (nM) DOHH2. The method, then:
as §1, §2, §3, §4
3.2 Test of DOHH2 Cells by CTG Assay
as §6
The compounds to be tested were diluted with the medium to the set corresponding action concentration, and the cells were added at 10 µl/well. The cells were incubated in an incubator set at 37° C., 100% relative humidity and 5% C02 for 72 hours.
The medium was aspirated and discarded, and 30 μl of test reagent was added. The plate was gentle shaken away from the light to lyse the cells.
as §9, §10, §11, §12

Another series has as its system TMD8 cells. Nature of the series: Cell proliferation inhibition in vitro, TMD8 cells by CCK-8 method. The class given is cell-based. The note with it: Homo sapiens, 72 hours, read-out: Inhibitions of cell activities IC50 (nM) TMD8. The method, then:
as §1, §2, §3, §4, §5, §6, §7, §8, §9, §10, §11, §12
(In general: Formazan colour is commonly taken as a measure of viable cells.)

Structures are written as SMILES. Some results are limits rather than exact numbers.

Sequence of BTK kinase (Q06187 whole entry): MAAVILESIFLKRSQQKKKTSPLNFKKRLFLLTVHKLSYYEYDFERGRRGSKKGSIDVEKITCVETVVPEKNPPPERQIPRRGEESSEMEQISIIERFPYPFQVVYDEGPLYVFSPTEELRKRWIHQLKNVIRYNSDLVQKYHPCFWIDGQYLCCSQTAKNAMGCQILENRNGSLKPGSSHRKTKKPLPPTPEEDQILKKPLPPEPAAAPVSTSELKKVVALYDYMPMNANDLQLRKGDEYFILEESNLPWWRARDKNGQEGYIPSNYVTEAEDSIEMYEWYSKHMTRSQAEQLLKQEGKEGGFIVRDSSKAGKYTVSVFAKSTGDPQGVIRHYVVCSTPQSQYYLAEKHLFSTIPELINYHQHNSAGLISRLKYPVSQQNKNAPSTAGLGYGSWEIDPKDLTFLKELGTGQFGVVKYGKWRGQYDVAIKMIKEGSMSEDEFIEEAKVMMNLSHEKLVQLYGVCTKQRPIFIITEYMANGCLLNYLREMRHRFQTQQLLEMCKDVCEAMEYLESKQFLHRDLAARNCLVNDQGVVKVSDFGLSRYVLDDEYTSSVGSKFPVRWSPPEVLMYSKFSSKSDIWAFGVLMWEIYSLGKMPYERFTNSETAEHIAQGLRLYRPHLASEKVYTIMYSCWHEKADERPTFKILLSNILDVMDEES

For the molecule `C=CC(=O)N1CC2CCCC2C1c1nc(-c2ccc(Oc3ccccc3)cc2)c2c(N)nccn12` (centres unmarked) [Example 96], at BTK kinase, the IC50 (in general, the concentration needed to halve the response being measured) is 3.1 nM. For the same molecule, the half-maximal inhibitory concentration (IC50) in the series with OCI-LY10 cells was 0.34 nM. In series [1], the “F (po) %” value turned out to be 34.53%; the clearance was 32.7 mL/min/kg; the half-life is 33 min; the AUC (as a rule, concentration integrated over time) worked out at 1580 ng·h/mL. Further, in series [1], the maximum concentration (Cmax) – broadly, the highest concentration seen after dosing – was 1590 ng/mL and the Tmax – broadly, the time at which the peak concentration occurs – turned out to be 21.6 min. Moreover, the IC50 in the series on DOHH2 cells turned out to be 200 nM. In the series on TMD8 cells, the IC50 amounted to 3.2 nM.

Regarding `CC#CC(=O)N1CCC[C@H]1c1nc(-c2ccc(C(=O)Nc3ccccn3)cc2)c2c(N)nccn12` [ACP-196, reference compound], the concentration for half-maximal inhibition (IC50) with OCI-LY10 cells came out at 1.4 nM. Besides, in series [1], the “F (po) %” value came to 19.75%, the clearance was 125 mL/min/kg, the half-life is 7.8 min and the area under the curve (AUC) was found to be 266 ng·h/mL. In series [1], the maximum concentration (Cmax) amounted to 266 ng/mL and the Tmax stood at 4.8 min. In addition, the half-inhibitory concentration (IC50) in the series with DOHH2 cells was greater than 1000 nM. Also, in the series on TMD8 cells, the 50% inhibitory concentration (IC50) was determined as 1.3 nM.

`CC#CC(=O)N1CC2(CC2)C[C@H]1c1nc(-c2ccc(C(C)(O)c3ccccc3)cc2)c2c(N)nccn12` (stereo partly drawn) [Example 73, 1-((6S)-6-(8-amino-1-(4-(1-hydroxy-1-phenylethyl)phenyl)imidazo[1,5-a]pyrazin-3-yl)-5-azaspiro[2.4]heptan-5-yl)but-2-yn-1-one]: the IC50 was determined as 18 nM at BTK kinase, 1.4 nM in the series on OCI-LY10 cells, 124 nM in the series on DOHH2 cells and 42.3 nM in the series on TMD8 cells.

`C=CC(=O)N1C2CCC1(c1nc(-c3ccc(C(C)(O)c4ccccc4)cc3)c3c(N)nccn13)COC2` (centres unmarked) [Example 84]: the IC50 was found to be 16.3 nM on BTK kinase, 4.2 nM in the series with OCI-LY10 cells, 48 nM in the series on DOHH2 cells and 6.8 nM with TMD8 cells.

Regarding `C=CC(=O)N1CC2CCC1(c1nc(-c3ccc(C(=O)Nc4ccccn4)cc3)c3c(N)nccn13)CC2` [Example 120, 4-(3-(2-acryloyl-2-azabicyclo[2.2.2]octan-1-yl)-8-aminoimidazo[1,5-a]pyrazin-1-yl)-N-(pyridin-2-yl)benzamide], the IC50 on BTK kinase amounted to 24 nM; in the series with OCI-LY10 cells it was 4.1 nM; in the series with DOHH2 cells it was 921 nM; in the series with TMD8 cells, 6.4 nM.

As for `C=CC(=O)N1C2CCC1(c1nc(-c3ccc(Oc4ccccc4)cc3)c3c(N)nccn13)COC2` (centres unmarked) [Example 104], the half-inhibitory concentration (IC50) stood at 4.6 nM at BTK kinase, 0.42 nM with OCI-LY10 cells, 718 nM in the series on DOHH2 cells and 3.6 nM with TMD8 cells.

Consider `C=CC(=O)N1C2C[C@@H](C1c1nc(-c3ccc(Oc4ccccc4)cc3)c3c(N)nccn13)N(C)C2` (some centres unmarked) [Example 108], for which the IC50 at BTK kinase is 72 nM; in the series on OCI-LY10 cells, 2.7 nM; in the series on DOHH2 cells it was greater than 1000 nM; in the series with TMD8 cells, 14.3 nM.

Consider `C=CC(=O)N1C2C[C@@H](C1c1nc(-c3ccc(C(=O)Nc4cc(C(F)(F)F)ccn4)cc3)c3c(N)nccn13)N(C(C)=O)C2` (some centres unmarked) [Example 56], for which the IC50 was 4.3 nM at BTK kinase, 3.4 nM in the series with OCI-LY10 cells, 74 nM in the series with DOHH2 cells and 5.9 nM in the series with TMD8 cells.

Consider `C=CC(=O)N1[C@H]2CC[C@@H]1[C@@H](c1nc(-c3ccc(C(=O)Nc4ccccn4)cc3)c3c(N)nccn13)C2` [Example 118, 4-(3-((1R,2S,4S)-7-acryloyl-7-azabicyclo[2.2.1]heptan-2-yl)-8-aminoimidazo[1,5-a]pyrazin-1-yl)-N-(pyridin-2-yl)benzamide], for which the 50% inhibitory concentration (IC50) on BTK kinase was 5.6 nM; in the series on OCI-LY10 cells it was 4.1 nM; in the series on DOHH2 cells, 712 nM; in the series with TMD8 cells it was 3.9 nM.

Regarding `C=CC(=O)N1CC2(CC2)C[C@H]1c1nc(-c2cccc(C(=O)Nc3ccccn3)c2)c2c(N)nccn12` [Example 124, (S)-3-(3-(5-acryloyl-5-azaspiro[2.4]heptan-6-yl)-8-aminoimidazo[1,5-a]pyrazin-1-yl)-N-(pyridin-2-yl)benzamide], the half-maximal inhibitory concentration (IC50) at BTK kinase stood at 18 nM; with OCI-LY10 cells, 1.5 nM; in the series on DOHH2 cells, 629 nM; with TMD8 cells, 11.8 nM.

On to `C=CC(=O)N1CC2CCCC2C1c1nc(-c2ccc(C(=O)Nc3cc(C(F)(F)F)ccn3)cc2)c2c(N)nccn12` (centres unmarked) [Example 42], for which the half-inhibitory concentration (IC50) at BTK kinase is 5.3 nM; in the series on OCI-LY10 cells it was 0.33 nM; in the series with DOHH2 cells it was 104 nM; in the series with TMD8 cells, 0.26 nM.

As to `CN(C)C/C=C/C(=O)N1CC2(CC2)C[C@H]1c1nc(-c2ccc(C(=O)Nc3ccccn3)cc2)c2c(N)nccn12` [Example 112, (S,E)-4-(8-amino-3-(5-(4-(dimethylamino)but-2-enoyl)-5-azaspiro[2.4]heptan-6-yl)imidazo[1,5-a]pyrazin-1-yl)-N-(pyridin-2-yl)benzamide], the IC50 came out at 21 nM on BTK kinase, 0.41 nM in the series with OCI-LY10 cells, 902 nM in the series with DOHH2 cells and 0.31 nM in the series with TMD8 cells.

In the case of `CC#CC(=O)N1CC2CC1(c1nc(-c3ccc(C(=O)Nc4ccccn4)cc3)c3c(N)nccn13)CO2` (centres unmarked) [Example 10], the 50% inhibitory concentration (IC50) was 72 nM on BTK kinase, 2.1 nM in the series on OCI-LY10 cells, greater than 1000 nM with DOHH2 cells and 6.3 nM with TMD8 cells.

As for `C=CC(=O)N1C[C@H]2[C@@H](C1c1nc(-c3ccc(C(=O)Nc4cc(C(F)(F)F)ccn4)cc3)c3c(N)nccn13)C2(C)C` (some centres unmarked) [Example 44], the half-inhibitory concentration (IC50) turned out to be 34 nM at BTK kinase, 1.3 nM with OCI-LY10 cells, 717 nM with DOHH2 cells and 7.8 nM in the series with TMD8 cells.

In the case of `C=CC(=O)N1CCC[C@@H](n2nc(-c3ccc(Oc4ccccc4)cc3)c3c(N)ncnc32)C1` [Ibrutinib, reference compound], in the series on OCI-LY10 cells, the IC50 amounted to 0.41 nM. In series [1], the “F (po) %” value was determined as 2.67%, the AUC came to 218 ng·h/mL, the Cmax came to 217 ng/mL and the Tmax was determined as 19.8 min. Also, the IC50 with DOHH2 cells was found to be 705 nM. The IC50 in the series on TMD8 cells came out at 0.28 nM.

(Values after patent US10793576B2, “Compound used as Bruton's tyrosine kinase inhibitor and preparation method and application thereof” (Chengdu Brilliant Pharmaceutical Co., LTD., priority 2017, dated 2020).)
